Assay results taken from patent US20180078576A1, “SULPHATED XYLANS FOR TREATMENT OR PROPHYLAXIS OF RESPIRATORY DISEASES” (Paradigm Biopharmaceuticals Limited, priority 2007, published 2018).

Biological target: T1, human IL-8 (Homo sapiens, UniProt P10145)
T1 sequence (P10145 21-99): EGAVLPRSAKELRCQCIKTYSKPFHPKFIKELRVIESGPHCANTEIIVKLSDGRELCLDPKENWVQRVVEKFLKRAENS
Assay: IL-8 induced migration of DMSO treated HL-60 cells (chemotaxis)
Format: cell-based
Conditions: 50 μg/ml, IL-8 20 ng/ml
Protocol: Chemokines known to play an important role in mediating the inflammation associated with COPD include IL-8, MCP-1 and MIP-1α (Barnes 2004, supra). […] These experiments were performed using DMSO treated human promyelocytic HL-60 cells. These cells were derived from a patient with acute promyelocytic leukemia. The cells were treated with DMSO (1.2%) for 4 days before being used in the experiments. The chemotaxis assays were performed in 96-well Costar chemotaxis plates consisting of a bottom chamber to which was added the human IL-8 (+/−inhibitor) and then cells in RPMI and 1% v/v FCS were added to a top chamber and the plate was incubated at 37° C. for 1 hour to allow cells to move from the top chamber into the bottom. The number of cells migrating into the bottom chamber was quantified by labeling with AQUEOUS ONE (20 μl/well) for 1.75 hours before absorbance at 490 nm is read. IL-8 was used at a final concentration of 20 ng/ml and the inhibitors were the sulfated xylan pentasaccharide (10 and 50 μg/ml) and pentosan polysulfate (10 and 50 μg/ml). Cell migration is compared with that seen with no IL-8 or with IL-8 and no inhibitor.

Inhibition of cell migration triggered by IL-8: 74%
Substance: Pentosan polysulfate [PPS]
